According to ChEMBL document CHEMBL1142493, “Structure-based approach to the development of potent and selective inhibitors of dihydrofolate reductase from cryptosporidium” (J Med Chem, 2008):

Assay: Inhibition of Cryptosporidium hominis dihydrofolate reductase expressed in Escherichia coli by spectrophotometry

`COc1cc(C(C)C#Cc2c(C)nc(N)nc2N)ccc1-c1c(C(C)C)cccc1C(C)C` (racemic) gave an IC50 of 16 nM.
For `COc1cc(-c2c(C)cccc2C)cc(C(C)C#Cc2c(C)nc(N)nc2N)c1` (racemic), the IC50 was 2.1 nM.
